The values that follow come from patent publication US11459315B2, “Modulators of methyl modifying enzymes, compositions and uses thereof” (Constellation Pharmaceuticals, Inc., priority 2017, dated 2022).

In assay [1] the test system is H3K27me3 mark in HeLa cells (EZH2). Kind of assay: H3K27me3 Alpha Hela Assay (AlphaLISA). It is filed as cell-based. The settings on record: HeLa cells, 72 hrs, read-out: EZH2 Cell H3K27me3 Alpha HeLa (EC50 K27me3). The essentials: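 HeLa cells (1,000/well) treated with ten 3-fold compound doses for 72 h at 37 °C; lysates extracted and H3K27me3 detected by AlphaLISA with anti-K27me3 acceptor beads, biotinylated anti-H3 (3 nM) and streptavidin donor beads. EC50 from DMSO-normalized dose-response curves; duplicate plate assessed viability.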
For orientation: In Alpha technology, singlet oxygen from a donor bead excites a nearby acceptor bead.

For assay [2], the target named is PRC2 containing wt EZH2 (Homo sapiens (Human), UniProt Q15910). Kind of assay: EZH2 biochemical assay (IC50), 3H-SAM incorporation into biotinylated H3 peptide. The method in brief: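 The PRC2 pentamer with wt EZH2 (30 pM) was pre-incubated for 3-5 h with 450 nM SAM plus 450 nM ³H-SAM, 2 µM H3K27me3 activating peptide and compound (0.8% DMSO) in Tris at pH 8.5. Biotinylated H3K27me1 peptide was added and the reaction ran 18-22 h at RT. Incorporated ³H was captured on streptavidin plates, and IC50 was taken from a four-parameter fit.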

Where [3] appears, read: 30 pM PRC2 containing wt EZH2; 3-5 h pre-incubation; read-out: EZH2 (IC50).
The mark [4] stands for this setting: EZH2 (IC50), 30 pM PRC2 containing wt EZH2; 3-5 h pre-incubation.

pEC50, pIC50: −log10 of the molar value. Read-outs that look alike come from different tables or passages of the source.

PRC2 containing wt EZH2, sequence (Q15910 whole entry): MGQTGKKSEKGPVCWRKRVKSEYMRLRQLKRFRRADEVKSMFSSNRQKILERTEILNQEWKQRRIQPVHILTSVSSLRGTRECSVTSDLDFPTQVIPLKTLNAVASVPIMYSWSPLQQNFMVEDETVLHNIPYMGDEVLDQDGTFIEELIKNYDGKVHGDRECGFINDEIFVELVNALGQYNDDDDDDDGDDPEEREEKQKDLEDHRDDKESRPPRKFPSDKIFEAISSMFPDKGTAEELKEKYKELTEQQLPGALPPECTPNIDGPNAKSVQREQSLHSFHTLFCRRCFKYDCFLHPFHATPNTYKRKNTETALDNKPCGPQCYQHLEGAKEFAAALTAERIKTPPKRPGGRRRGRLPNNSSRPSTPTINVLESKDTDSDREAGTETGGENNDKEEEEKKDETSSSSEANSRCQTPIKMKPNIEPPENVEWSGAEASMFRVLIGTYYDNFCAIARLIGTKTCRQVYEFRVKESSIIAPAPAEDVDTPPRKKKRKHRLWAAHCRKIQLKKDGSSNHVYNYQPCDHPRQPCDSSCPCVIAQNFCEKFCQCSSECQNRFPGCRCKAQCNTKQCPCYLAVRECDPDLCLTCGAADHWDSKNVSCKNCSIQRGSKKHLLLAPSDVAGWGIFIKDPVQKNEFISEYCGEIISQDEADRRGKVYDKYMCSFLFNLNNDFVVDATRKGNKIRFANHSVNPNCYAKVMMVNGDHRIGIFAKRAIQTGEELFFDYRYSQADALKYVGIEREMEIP
PRC2 containing wt EZH2, sequence (O75530 whole entry partner): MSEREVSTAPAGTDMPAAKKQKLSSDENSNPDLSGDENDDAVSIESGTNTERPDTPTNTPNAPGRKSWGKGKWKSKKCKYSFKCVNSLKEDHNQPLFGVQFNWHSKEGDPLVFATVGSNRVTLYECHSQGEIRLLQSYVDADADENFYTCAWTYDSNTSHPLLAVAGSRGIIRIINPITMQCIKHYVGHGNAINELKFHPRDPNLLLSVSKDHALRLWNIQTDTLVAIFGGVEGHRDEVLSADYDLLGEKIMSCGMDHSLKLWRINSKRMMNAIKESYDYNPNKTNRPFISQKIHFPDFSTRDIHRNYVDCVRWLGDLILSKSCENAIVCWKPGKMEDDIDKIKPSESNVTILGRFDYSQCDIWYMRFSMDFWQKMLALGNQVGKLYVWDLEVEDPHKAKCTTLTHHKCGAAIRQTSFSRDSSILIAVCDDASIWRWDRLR
PRC2 containing wt EZH2, sequence (Q15022 whole entry partner): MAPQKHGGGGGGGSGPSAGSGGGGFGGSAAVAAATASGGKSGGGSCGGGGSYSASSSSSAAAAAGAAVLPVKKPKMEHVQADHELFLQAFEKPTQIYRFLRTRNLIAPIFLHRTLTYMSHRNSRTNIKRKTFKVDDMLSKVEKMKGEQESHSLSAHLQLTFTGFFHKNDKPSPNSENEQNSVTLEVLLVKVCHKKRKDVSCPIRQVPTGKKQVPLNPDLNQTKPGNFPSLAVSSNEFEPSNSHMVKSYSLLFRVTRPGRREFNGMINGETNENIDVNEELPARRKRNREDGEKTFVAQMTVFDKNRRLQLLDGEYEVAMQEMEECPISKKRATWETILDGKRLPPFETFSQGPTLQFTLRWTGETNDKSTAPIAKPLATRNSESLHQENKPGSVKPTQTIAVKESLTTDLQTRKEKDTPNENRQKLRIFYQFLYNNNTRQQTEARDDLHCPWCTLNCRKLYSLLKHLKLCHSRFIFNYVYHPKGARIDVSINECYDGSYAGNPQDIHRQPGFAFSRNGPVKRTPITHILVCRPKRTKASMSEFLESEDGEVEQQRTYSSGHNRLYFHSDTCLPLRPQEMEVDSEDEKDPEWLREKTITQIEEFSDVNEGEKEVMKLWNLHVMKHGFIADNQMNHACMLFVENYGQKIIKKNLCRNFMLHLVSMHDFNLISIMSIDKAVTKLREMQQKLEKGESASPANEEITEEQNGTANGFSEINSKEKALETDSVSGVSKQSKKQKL
PRC2 containing wt EZH2, sequence (Q09028 whole entry partner): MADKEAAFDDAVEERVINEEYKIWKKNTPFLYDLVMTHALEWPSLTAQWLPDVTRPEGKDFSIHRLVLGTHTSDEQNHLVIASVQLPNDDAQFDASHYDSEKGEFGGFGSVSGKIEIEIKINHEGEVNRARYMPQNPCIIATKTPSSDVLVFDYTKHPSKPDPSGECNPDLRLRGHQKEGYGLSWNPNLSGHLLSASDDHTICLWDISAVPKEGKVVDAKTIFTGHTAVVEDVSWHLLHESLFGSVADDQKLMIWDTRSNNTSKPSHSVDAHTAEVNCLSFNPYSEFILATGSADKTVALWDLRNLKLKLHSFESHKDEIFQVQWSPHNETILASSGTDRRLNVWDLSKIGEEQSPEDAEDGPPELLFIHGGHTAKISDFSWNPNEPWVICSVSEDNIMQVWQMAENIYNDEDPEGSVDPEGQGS
PRC2 containing wt EZH2, sequence (Q6ZN18 whole entry partner): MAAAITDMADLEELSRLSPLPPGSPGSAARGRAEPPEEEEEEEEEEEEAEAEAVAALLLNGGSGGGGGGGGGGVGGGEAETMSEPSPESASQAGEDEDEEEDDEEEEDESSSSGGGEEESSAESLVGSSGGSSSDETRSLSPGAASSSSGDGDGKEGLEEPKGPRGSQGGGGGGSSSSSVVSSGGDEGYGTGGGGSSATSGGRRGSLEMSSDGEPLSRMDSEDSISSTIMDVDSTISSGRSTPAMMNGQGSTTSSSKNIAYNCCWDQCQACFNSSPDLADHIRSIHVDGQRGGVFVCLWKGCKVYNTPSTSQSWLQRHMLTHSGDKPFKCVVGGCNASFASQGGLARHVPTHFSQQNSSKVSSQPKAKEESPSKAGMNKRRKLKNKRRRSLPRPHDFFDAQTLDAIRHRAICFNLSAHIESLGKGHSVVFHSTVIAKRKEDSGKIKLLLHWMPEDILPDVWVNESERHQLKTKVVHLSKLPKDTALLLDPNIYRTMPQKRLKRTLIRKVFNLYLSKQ

Turning to `CSc1cc(C)[nH]c(=O)c1CNC(=O)c1c(C)n([C@H](C)C2CCC(N3CC(F)C3)CC2)c2ccccc12` (single isomer, unassigned) [24 (isomer 2)], the pEC50 in assay [1] is over 8.00. Further, the negative-log IC50 (pIC50) in assay [2] (read-out: EZH2 (IC50); 30 pM PRC2 containing wt EZH2; 3-5 h pre-incubation) was over 9.30.

In the case of `CSc1cc(C)[nH]c(=O)c1CNC(=O)c1c(C)n([C@H](C)C2CCC(NC3(CF)COC3)CC2)c2ncccc12` (single isomer, unassigned) [155 (isomer 2)], the pEC50 in assay [1] was 7.00 to 8.00. Moreover, in assay [2] (setting [3]), the pIC50 was 8.30 to 9.30.

For the compound `COC1(C)CN(C2CCC([C@@H](C)n3c(C)c(C(=O)NCc4c(SC)cc(C)[nH]c4=O)c4ccccc43)CC2)C1` (single isomer, unassigned) [90 (isomer 2)], the pEC50 in assay [1] is under 7.00. In addition, in assay [2] (setting [3]), the pIC50 was over 9.30.

Turning to `Cc1cc(SC(F)F)c(CNC(=O)c2c(C)n([C@H](C)C3CCN(CC(F)(F)F)CC3)c3ccccc23)c(=O)[nH]1` [Example 105, (R)-N-((4-((difluoromethyl)thio)-6-methyl-2-oxo-1,2-dihydropyridin-3-yl)methyl)-2-methyl-1-(1-(1-(2,2,2-trifluoroethyl)piperidin-4-yl)ethyl)-1H-indole-3-carboxamide], in assay [1] (Homo sapiens, HeLa, 72 h), the negative-log EC50 (pEC50) is 7.00 to 8.00. For the same compound, in assay [2] (setting [3]), the pIC50 is 8.30 to 9.30.

Consider `CSc1cc(C)[nH]c(=O)c1CNC(=O)c1c(C)n([C@H](C)C2CCC(NC3COC3)CC2)c2ncccc12` (single isomer, unassigned) [62 (isomer 2)], for which the pEC50 in assay [1] (listed as 62) was under 7.00. Moreover, the negative-log IC50 (pIC50) in assay [2] (setting [3]) was 8.30 to 9.30.

As for `CSc1cc(C)[nH]c(=O)c1CNC(=O)c1c(C)n([C@H](C)C2CCN(C3CC(F)C3)CC2)c2ncccc12` (stereo partly drawn) [Example 66, (R)-1-(1-(1-(3-fluorocyclobutyl)piperidin-4-yl)ethyl)-2-methyl-N-((6-methyl-4-(methylthio)-2-oxo-1,2-dihydropyridin-3-yl)methyl)-1H-pyrrolo[2,3-b]pyridine-3-carboxamide], in assay [1] (Homo sapiens, HeLa, 72 h), the negative logarithm of the EC50 (pEC50) was 7.00 to 8.00. Also, in assay [2] (setting [4]), the negative-log IC50 (pIC50) is over 9.30.

Regarding `CSc1cc(C)[nH]c(=O)c1CNC(=O)c1c(C)n([C@H](C)C2CCC(C)(O)CC2)c2ccccc12` (single isomer, unassigned) [22 (isomer 1)], in assay [1] (Homo sapiens, HeLa, 72 h), the negative logarithm of the EC50 (pEC50) is over 8.00. In addition, the negative-log IC50 (pIC50) in assay [2] (setting [4]) was over 9.30.

Regarding `CSc1cc(C)[nH]c(=O)c1CNC(=O)c1c(C)n([C@H](C)C2CCC(OC(F)F)CC2)c2ccccc12` (single isomer, unassigned) [60 (isomer 1)], the negative logarithm of the EC50 (pEC50) in assay [1] (Homo sapiens, HeLa, 72 h) was over 8.00. In addition, the negative-log IC50 (pIC50) in assay [2] (setting [4]) is over 9.30.

As for `COC[C@@H](C)n1c(C)c(C(=O)NCc2c(SC)cc(C)[nH]c2=O)c2ccccc21` [Example 32, (R)-1-(1-methoxypropan-2-yl)-2-methyl-N-((6-methyl-4-(methylthio)-2-oxo-1,2-dihydropyridin-3-yl)methyl)-1H-indole-3-carboxamide], the pEC50 in assay [1] (Homo sapiens, HeLa, 72 h) is 7.00 to 8.00. Further, in assay [2] (setting [4]), the negative logarithm of the IC50 (pIC50) is over 9.30.

Turning to `COC1(C)CN(C2CCC([C@@H](C)n3c(C)c(C(=O)NCc4c(SC)cc(C)[nH]c4=O)c4ccccc43)CC2)C1` (single isomer, unassigned) [90 (isomer 1)], the pEC50 in assay [1] is 7.00 to 8.00. In addition, in assay [2] (setting [3]), the pIC50 is over 9.30.

As for `CSc1cc(C)[nH]c(=O)c1CNC(=O)c1c(C)n([C@H](C)C2CCC(N3CC(OC(F)F)C3)CC2)c2c(F)cccc12` (single isomer, unassigned) [121 (isomer 1)], the negative logarithm of the EC50 (pEC50) in assay [1] is over 8.00. The pIC50 in assay [2] (setting [3]) was over 9.30.

For `CSc1cc(C)[nH]c(=O)c1CNC(=O)c1c(C)n([C@@H](C)c2ccc(N(C)C)cc2)c2ccccc12` [Example 47, (S)-1-(1-(4-(dimethylamino)phenyl)ethyl)-2-methyl-N-((6-methyl-4-(methylthio)-2-oxo-1,2-dihydropyridin-3-yl)methyl)-1H-indole-3-carboxamide], the negative logarithm of the EC50 (pEC50) in assay [1] (Homo sapiens, HeLa, 72 h) was under 7.00. In assay [2] (setting [4]), this compound gave a pIC50 of 8.30 to 9.30.

The term pEC50 denotes the EC50 on a negative log10 scale, so that one unit is a factor of ten. The pIC50 is the IC50 on a negative log10 scale, so that one unit is a factor of ten.
